We go through seven compounds from ChEMBL document CHEMBL1201862, “PubChem BioAssay data set” (2004).

Among the test systems are 786-0; A498; CCRF-CEM; HL-60; HT-29; Hs-578T; KM12; M14; MDA-MB-231; Malme-3M; NCI-H23; NCI/ADR-RES; OVCAR-5; PC-3; RPMI-8226; SF-539; SK-MEL-5; SN12C; U-251; UO-31.
Common to all, as to assay: DTP human tumour cell line panel, 48 h

SMILES strings stand for the structures.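 Step 1: Grow cells in 96-well plates. Step 2: Expose to compound for 48 hours at 5 concentrations. Step 3: Interpolate endpoints linearly; if unreached, use highest concentration. Abbreviation: GI50, concentration required for 50% inhibition of growth.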 Active and inactive are the calls of the source. No stated cut-off is given here; in the data, active = GI50 up to about 1.1 µM and inactive = higher. Where only a bound is given, the exact number is not on record here.

For the compound `COC(=O)C1=C(C)NC2=C(C(=O)c3ccccc32)C1c1c[nH]nc1-c1ccccc1` (stereo not given), the GI50 was > 100 µM (inactive) in the assay with 786-0; 48.5 µM (inactive) in the assay on A498; 40.3 µM (inactive) in the assay on CCRF-CEM; 39.8 µM (inactive) with HL-60; 24.3 µM (inactive) in the assay on HT-29; 21.5 µM (inactive) in the assay on Hs-578T. Further, the GI50 in the assay with KM12 was 86.7 µM (inactive); in the assay on M14, > 100 µM (inactive); with MDA-MB-231, 30.1 µM (inactive); in the assay on Malme-3M it was 25.2 µM (inactive); with NCI-H23, > 100 µM (inactive); in the assay on NCI/ADR-RES, 42.1 µM (inactive). Moreover, the GI50 in the assay with OVCAR-5 was > 100 µM (inactive); in the assay on PC-3, 52.1 µM (inactive); in the assay on RPMI-8226, 49 µM (inactive); in the assay with SF-539, 29.9 µM (inactive); with SK-MEL-5, 31.8 µM (inactive); in the assay with SN12C, 72.9 µM (inactive). Also, the values for the GI50 in the assay with U-251 and in the assay on UO-31 were 72.1 µM (inactive) and > 100 µM (inactive), respectively.
As to `Nc1ncnc2c1ccn2C1OC2COP(=O)(O)OC2C1O` (stereo not given), the GI50 in the assay on 786-0 was 0.281 µM (active); in the assay on A498, 1.15 µM (inactive); in the assay with CCRF-CEM it was 0.773 µM (active); in the assay on HL-60, < 0.0476 µM (active); in the assay with HT-29, 0.137 µM (active); with Hs-578T it was 0.502 µM (active). The GI50 in the assay on KM12 was 0.363 µM (active); with M14 it was 0.069 µM (active); in the assay with MDA-MB-231, 0.33 µM (active); in the assay with Malme-3M, 0.27 µM (active); with NCI-H23, 0.885 µM (active); in the assay on NCI/ADR-RES it was 0.565 µM (active). Further, the GI50 in the assay on OVCAR-5 was 0.849 µM (active); in the assay on PC-3 it was 0.163 µM (active); with RPMI-8226, 0.124 µM (active); in the assay on SF-539 it was 3.51 µM (inactive); in the assay with SK-MEL-5, 0.327 µM (active); in the assay on SN12C, 0.207 µM (active). The GI50 in the assay with U-251 is 0.31 µM (active); in the assay on UO-31, 0.196 µM (active).
With `Cc1ccc([N+](=O)[O-])c2c(NCCNC(=O)Cn3ccnc3[N+](=O)[O-])ccnc12`, the GI50 is 34.8 µM (inactive) in the assay on 786-0; 31.6 µM (inactive) in the assay with A498; > 100 µM (inactive) with CCRF-CEM; > 100 µM (inactive) with HL-60; 32.4 µM (inactive) in the assay with HT-29; 28.3 µM (inactive) in the assay on Hs-578T. The GI50 with KM12 is 52.2 µM (inactive); in the assay on M14, > 100 µM (inactive); with MDA-MB-231, 32 µM (inactive); in the assay on Malme-3M, 28.6 µM (inactive); in the assay with NCI-H23, 54.2 µM (inactive); with NCI/ADR-RES, > 100 µM (inactive). The GI50 with OVCAR-5 is 35.5 µM (inactive); in the assay on PC-3, 28.8 µM (inactive); with RPMI-8226 it was 96.6 µM (inactive); with SF-539 it was 35.5 µM (inactive); with SK-MEL-5 it was 17.8 µM (inactive); with SN12C, 38.3 µM (inactive). In addition, the GI50 is 36.6 µM (inactive) in the assay on U-251 and > 100 µM (inactive) in the assay with UO-31.
For `C=C(CN(C)C)C(=O)c1ccc(C)cc1C`, the GI50 was 5.19 µM (inactive) in the assay on 786-0; 17.2 µM (inactive) with A498; 0.574 µM (active) in the assay with CCRF-CEM; 0.46 µM (active) in the assay on HL-60; 7.66 µM (inactive) in the assay on HT-29; 26.1 µM (inactive) in the assay with Hs-578T. For the same compound, the GI50 with KM12 is 15.9 µM (inactive); in the assay with M14, 5.93 µM (inactive); with MDA-MB-231 it was 13.3 µM (inactive); in the assay with Malme-3M it was 5.7 µM (inactive); in the assay with NCI-H23, 10.6 µM (inactive); with NCI/ADR-RES it was 7 µM (inactive). In addition, the GI50 in the assay on OVCAR-5 is 14.1 µM (inactive); in the assay with PC-3 it was 14.1 µM (inactive); in the assay on RPMI-8226, 1.16 µM (inactive); in the assay on SF-539, 12.7 µM (inactive); with SK-MEL-5, 14.1 µM (inactive); with SN12C it was 11.8 µM (inactive). Further, the GI50 in the assay on U-251 is 16.9 µM (inactive); with UO-31, 12.2 µM (inactive).
Take `O=C(NC1(c2cc3ccccc3s2)CCCCC1)C1CCC1`: the GI50 in the assay on 786-0 was > 100 µM (inactive); in the assay on A498, > 100 µM (inactive); in the assay on CCRF-CEM, > 100 µM (inactive); with HL-60, > 100 µM (inactive); with HT-29, > 100 µM (inactive); in the assay with Hs-578T, 37.1 µM (inactive). Further, the GI50 with KM12 is > 100 µM (inactive); in the assay on M14, > 100 µM (inactive); with MDA-MB-231 it was 69.5 µM (inactive); in the assay on Malme-3M, > 100 µM (inactive); with NCI-H23, > 100 µM (inactive); with NCI/ADR-RES, > 100 µM (inactive). The GI50 was > 100 µM (inactive) in the assay on OVCAR-5; > 100 µM (inactive) in the assay on PC-3; > 100 µM (inactive) with RPMI-8226; 23.1 µM (inactive) in the assay with SF-539; > 100 µM (inactive) with SK-MEL-5; > 100 µM (inactive) in the assay with SN12C. For the same compound, the GI50 in the assay on U-251 and in the assay with UO-31 was > 100 µM (inactive) throughout.
Turning to `Cn1c(=O)c2[nH]c(N/N=C3/SCC(=O)N3Cc3ccccc3)nc2n(C)c1=O`, the GI50 in the assay with 786-0 is 27 µM (inactive); with A498 it was > 100 µM (inactive); in the assay with CCRF-CEM, 22.1 µM (inactive); with HL-60, 69.5 µM (inactive); in the assay on HT-29, 48.9 µM (inactive); with Hs-578T, 17.1 µM (inactive). Also, the GI50 in the assay on KM12 was 48.2 µM (inactive); with M14 it was 44.3 µM (inactive); in the assay on MDA-MB-231 it was 51.9 µM (inactive); in the assay on Malme-3M, 52.5 µM (inactive); with NCI-H23, 71.9 µM (inactive); with NCI/ADR-RES it was > 100 µM (inactive). Also, the GI50 in the assay on OVCAR-5 was 19 µM (inactive); with PC-3, > 100 µM (inactive); in the assay on RPMI-8226, 42.4 µM (inactive); in the assay on SF-539, 29.1 µM (inactive); in the assay on SK-MEL-5, 34.9 µM (inactive); in the assay with SN12C, > 100 µM (inactive). For the same compound, the GI50 in the assay on U-251 was 55.3 µM (inactive); with UO-31, > 100 µM (inactive).
On to `O=C1c2ccsc2C(=O)c2sc(CO)cc21`, for which the concentration for 50% growth inhibition (GI50) in the assay with 786-0 was 0.385 µM (active); in the assay with A498, 0.331 µM (active); with CCRF-CEM, 0.207 µM (active); in the assay with HL-60, 0.656 µM (active); with HT-29 it was 0.219 µM (active); in the assay with Hs-578T, 0.0611 µM (active). Further, the GI50 is 1.79 µM (inactive) with KM12; < 0.0123 µM (active) with M14; 0.159 µM (active) in the assay with MDA-MB-231; 0.61 µM (active) in the assay on Malme-3M; 0.0322 µM (active) in the assay with NCI-H23; 0.0845 µM (active) with NCI/ADR-RES. Moreover, the GI50 in the assay with OVCAR-5 is 1.43 µM (inactive); in the assay on PC-3, 0.126 µM (active); in the assay on RPMI-8226, 0.22 µM (active); with SF-539, 0.0469 µM (active); with SK-MEL-5, < 0.0118 µM (active); with SN12C, 0.0386 µM (active). Besides, the GI50 with U-251 was 0.156 µM (active); with UO-31, 0.134 µM (active).
